Test results as given in US4536396A, “Synergistic sweetening compositions” (Pfizer Inc., priority 1983, dated 1985).

Experiments:
[1] = cited from earlier work
[2] = Sensory analysis of relative sweetness intensity and taste quality of aqueous solutions compared with sucrose solutions
Experimental: The relative sweetness intensity and quality of CP-54,802, AS-K and mixtures of CP-54,802 and AS-K were determined by sensory analysis. These determinations were carried out in a facility designed for controlled tasting, flavor research and evaluation of food additives, including a separate preparation room and individual tasting booths with complete air-conditioning, controlled lighting, running water and a sink for expectoration.
Aqueous solutions of sucrose were prepared at concentrations (w/w) of 2, 3, 4, 5, 6, 7, 8, 9, 10, 11 and 12% along with a sample of one of the test compounds at the levels specified in the test experiments. A beaker containing a solution of the test compound identified only by a coded digit was submitted to the taster by a co-worker along with a beaker containing the above sucrose solutions. The sweetness intensity of the test compound was compared with one or more of the sucrose control solutions to determine whether that particular sucrose reference sample was of lesser, greater or equal sweetness. The taste quality of the test sample was then characterized by comparison with the sucrose solution. In some instances a reference aqueous solution containing either CP-54,802 and/or AS-K alone was also used to characterize the taste quality of mixture of CP-54,802 and AS-K.
After selecting the particular sucrose solution equal in sweetness to the AS-K solution, subsequent test comparisons of the AS-K and sucrose solution at closest sweetness intensity were performed to recheck the intensity value and to characterize the taste quality of the AS-K. By this means, the following results were obtained: […]

[3] = Taste quality and sweetening potency in typically prepared edible products (Table III)
From the text: The ultimate compositions for edible use, or for use as oral hygienic products or as formulated medicinal agents, are readily prepared, using methods generally known in the food technology and pharmaceutical arts. The taste quality of such typically prepared edible products prepared with sucrose, with AS-K alone and with one of present combinations as sweetening agent are summarized in Table III.

[4] = at 2% sucrose equivalent in water
[5] = at 3% sucrose equivalent in water
[6] = at 4% sucrose equivalent in water
[7] = at 5% sucrose equivalent in water
[8] = at 6% sucrose equivalent in water
[9] = at 7% sucrose equivalent in water, AS-K values above 6% only approximate
[10] = at 8% sucrose equivalent in water, AS-K values above 6% only approximate
[11] = at 9% sucrose equivalent in water, AS-K values above 6% only approximate
[12] = at 10% sucrose equivalent in water, AS-K values above 6% only approximate
[13] = compared to 10% sucrose in water
[14] = equal in sweetness to 2% sucrose (w/w) in water
[15] = equal in sweetness to 3% sucrose (w/w) in water
[16] = equal in sweetness to 4% sucrose (w/w) in water
[17] = equal in sweetness to 5% sucrose (w/w) in water
[18] = equal in sweetness to 6% sucrose (w/w) in water
[19] = equal in sweetness to 7% sucrose (w/w) in water
[20] = equal in sweetness to 8% sucrose (w/w) in water
[21] = equal in sweetness to 9% sucrose (w/w) in water
[22] = equal in sweetness to 10% sucrose (w/w) in water

SMILES | Potency Sucrose = 1 [2, 4] | Potency Sucrose = 1 [2, 5] | Potency Sucrose = 1 [2, 6] | Potency Sucrose = 1 [2, 7] | Potency Sucrose = 1 [2, 8] | Potency Sucrose = 1 [2, 9] | Potency Sucrose = 1 [2, 10] | Potency Sucrose = 1 [2, 11] | Potency Sucrose = 1 [2, 12] | Equivalent Concentration % [2, 14] | Equivalent Concentration % [2, 15] | Equivalent Concentration % [2, 16] | Equivalent Concentration % [2, 17] | Equivalent Concentration % [2, 18] | Equivalent Concentration % [2, 19] | Equivalent Concentration % [2, 20] | Equivalent Concentration % [2, 21] | Equivalent Concentration % [2, 22] | Potency of Sweetening Agent in Product ([3]; 7-Up-type carbonated drink) | Potency of Sweetening Agent in Product ([3]; Cola carbonated drink) | further results
CC1=CC(=O)NS(=O)(=O)O1 [AS-K, 6-Methyl-1,2,3-oxathiazin-4(3H)-one-2,2-dioxide] | 250 Sucrose = 1 | 200 Sucrose = 1 | 160 Sucrose = 1 | 110 Sucrose = 1 | 90 Sucrose = 1 | 90 Sucrose = 1 | 90 Sucrose = 1 | 85 Sucrose = 1 | 80 Sucrose = 1 | 0.0080% | 0.0150% | 0.0250% | 0.0455% | 0.0667% | 0.0777% | 0.0889% | 0.1059% | 0.1250% | < 90 | 90 | Sweetness relative to cane sugar ([1]; in water at concentrations equivalent in sweetness to a 4% solution of cane sugar): 130; Concentration equivalent to 4% cane sugar ([1]; in water): 0.031%; Relative sweetness ([2]; at concentrations equivalent to 6-10% sucrose): ≤ 90; Concentration (g/100 ml) ≡ 10% Sucrose [2, 13]: 0.1250 g/100 ml; Potency of Mixture [2, 13]: 80; Potency of Sweetening Agent in Product ([3]; Lemonade drink): < 90; Potency of Sweetening Agent in Product ([3]; Orange gelatin dessert): < 90; Potency of Sweetening Agent in Product ([3]; Peppermint hard candy): < 90; Potency of Sweetening Agent in Product ([3]; Strawberry drink): < 90; Potency of Sweetening Agent in Product ([3]; Vanilla cakes): 90; Potency of Sweetening Agent in Product ([3]; Vanilla frozen dessert): < 90; Potency of Sweetening Agent in Product ([3]; Vanilla pudding): < 90
OC[C@H]1O[C@@](CO)(O[C@H]2O[C@H](CO)[C@@H](O)[C@H](O)[C@H]2O)[C@@H](O)[C@@H]1O [Sucrose, reference compound] | – | – | – | – | – | – | – | – | – | – | – | – | – | – | – | – | – | – | 1 | 1 | Potency of Sweetening Agent in Product ([3]; Lemonade drink): 1; Potency of Sweetening Agent in Product ([3]; Orange gelatin dessert): 1; Potency of Sweetening Agent in Product ([3]; Peppermint hard candy): 1; Potency of Sweetening Agent in Product ([3]; Strawberry drink): 1; Potency of Sweetening Agent in Product ([3]; Vanilla cakes): 1; Potency of Sweetening Agent in Product ([3]; Vanilla frozen dessert): 1; Potency of Sweetening Agent in Product ([3]; Vanilla pudding): 1
C[C@@H](NC(=O)[C@@H](N)CC(=O)O)C(=O)NC1C(C)(C)SC1(C)C [CP-54,802, 3-(L-Aspartyl-D-alaninamido)-2,2,4,4-tetramethylthietane] | 2,900 Sucrose = 1 | 2,850 Sucrose = 1 | 2,800 Sucrose = 1 | 2,500 Sucrose = 1 | 2,300 Sucrose = 1 | 2,250 Sucrose = 1 | 2,112 Sucrose = 1 | 2,075 Sucrose = 1 | 2,000 Sucrose = 1 | 0.00069% | 0.00105% | 0.00143% | 0.002% | 0.0026% | 0.0031% | 0.00378% | 0.0043% | 0.005% | – | – | –
